# Data from patent US8158637B2, “Quinazolines useful as modulators of voltage gated ion channels” (Vertex Pharmaceuticals Incorporated, priority 2005, dated 2012).
# Target: T1, NaV 1.8 channel (Homo sapiens, UniProt Q9Y5Y9)
# T1 construct: expressed in transfected cells; host or cells: HEK293
# Experiment: VIPR optical membrane potential assay with electrical stimulation, NaV1.8 inhibition
# Assay type: cell-based
# Conditions: activity against NaV 1.8 channel
# Experimental: Compounds of the invention are useful as antagonists of voltage-gated sodium ion channels. Antagonist properties of test compounds were assessed as follows. Cells expressing the NaV of interest were placed into microtiter plates. After an incubation period, the cells were stained with fluorescent dyes sensitive to the transmembrane potential. The test compounds were added to the microtiter plate. The cells were stimulated with either a chemical or electrical means to evoke a NaV dependent membrane potential change from unblocked channels, which was detected and measured with trans-membrane potential-sensitive dyes. Antagonists were detected as a decreased membrane potential response to the stimulus. The optical membrane potential assay utilized voltage-sensitive FRET sensors described by Gonzalez and Tsien (See, Gonzalez, J. E. and R. Y. Tsien (1995) “Voltage sensing by fluorescence resonance energy transfer in single cells” Biophys J 69(4): 1272-80, and Gonzalez, J. E. and R. Y. Tsien (1997) “Improved indicators of cell membrane potential that use fluorescence resonance energy transfer” Chem Biol 4(4): 269-77) in combination with instrumentation for measuring fluorescence changes such as the Voltage/Ion Probe Reader (VIPR®) (See, Gonzalez, J. E., K. Oades, et al. (1999) “Cell-based assays and instrumentation for screening ion-channel targets” Drug Discov Today 4(9): 431-439).
# C) VIPR® Optical Membrane Potential Assay Method with Electrical Stimulation
# The following was an example of how NaV1.8 inhibition activity was measured using the optical membrane potential method #2. Other subtypes were performed in an analogous mode in a cell line expressing the NaV of interest.
# HEK293 cells stably expressing NaV1.8 were plated into 96-well microtiter plates. After an appropriate incubation period, the cells were stained with the voltage sensitive dyes CC2-DMPE/DiSBAC6(3) as follows.
# 2×CC2-DMPE/DiSBAC6(3)=8 μM CC2-DMPE/8 μM DiSBAC6(3): 10 mM CC2-DMPE and DiSBAC6(3) was vortexed with an equivalent volume of 10% pluronic, followed by vortexing in required amount of Bath Solution #1. Each cell plate required 5 mL of 2×CC2-DMPE/DiSBAC6(3). 50 μL of 2×CC2-DMPE/DiSBAC6(3) was added to wells containing washed cells, resulting in a 4 μM final staining concentration of both dyes. The cells were stained for 30 minutes in the dark at RT.
# 2×ABSC1=1 mM ABSC1: The required amount of 200 mM ABSC1 was added to a 50 ml conical tube and mixed with 1 μL 10% pluronic for each mL of solution made and vortexed together. Then Bath Solution #1 was added to make up a 2× solution. Finally, the ABSC1 was added.
# The 2×ABSC1 solution was used to solvate compound plates. Note that compound plates were made at 2× drug concentration. The stained plate was washed again, leaving residual volume of 50 μL. Added 50 μL/well of the 2×ABSC1. The cells were stained for 30 minutes in the dark at RT.
# The electrical stimulation instrument and methods of use are described in ION Channel Assay Methods PCT/US01/21652 and Nat Biotech 2006, 24(4), 439-446, both herein incorporated by reference. The instrument comprises a microtiter plate handler, an optical system for exciting the coumarin dye while simultaneously recording the coumarin and oxonol emissions, a waveform generator, a current- or voltage-controlled amplifier, and a device for inserting electrodes in well. Under integrated computer control, this instrument passed user-programmed electrical stimulus protocols to cells within the wells of the microtiter plate.
# Assay Protocol • 1. Inserted or used electrodes into each well that was assayed. • 2. Used the current-controlled amplifier to deliver stimulation wave pulses for 3 s. Two seconds of pre-stimulus recording was performed to obtain the un-stimulated intensities. Five seconds of post-stimulation recording was performed to examine the relaxation to the resting state. […]
# T1 sequence (Q9Y5Y9 whole entry): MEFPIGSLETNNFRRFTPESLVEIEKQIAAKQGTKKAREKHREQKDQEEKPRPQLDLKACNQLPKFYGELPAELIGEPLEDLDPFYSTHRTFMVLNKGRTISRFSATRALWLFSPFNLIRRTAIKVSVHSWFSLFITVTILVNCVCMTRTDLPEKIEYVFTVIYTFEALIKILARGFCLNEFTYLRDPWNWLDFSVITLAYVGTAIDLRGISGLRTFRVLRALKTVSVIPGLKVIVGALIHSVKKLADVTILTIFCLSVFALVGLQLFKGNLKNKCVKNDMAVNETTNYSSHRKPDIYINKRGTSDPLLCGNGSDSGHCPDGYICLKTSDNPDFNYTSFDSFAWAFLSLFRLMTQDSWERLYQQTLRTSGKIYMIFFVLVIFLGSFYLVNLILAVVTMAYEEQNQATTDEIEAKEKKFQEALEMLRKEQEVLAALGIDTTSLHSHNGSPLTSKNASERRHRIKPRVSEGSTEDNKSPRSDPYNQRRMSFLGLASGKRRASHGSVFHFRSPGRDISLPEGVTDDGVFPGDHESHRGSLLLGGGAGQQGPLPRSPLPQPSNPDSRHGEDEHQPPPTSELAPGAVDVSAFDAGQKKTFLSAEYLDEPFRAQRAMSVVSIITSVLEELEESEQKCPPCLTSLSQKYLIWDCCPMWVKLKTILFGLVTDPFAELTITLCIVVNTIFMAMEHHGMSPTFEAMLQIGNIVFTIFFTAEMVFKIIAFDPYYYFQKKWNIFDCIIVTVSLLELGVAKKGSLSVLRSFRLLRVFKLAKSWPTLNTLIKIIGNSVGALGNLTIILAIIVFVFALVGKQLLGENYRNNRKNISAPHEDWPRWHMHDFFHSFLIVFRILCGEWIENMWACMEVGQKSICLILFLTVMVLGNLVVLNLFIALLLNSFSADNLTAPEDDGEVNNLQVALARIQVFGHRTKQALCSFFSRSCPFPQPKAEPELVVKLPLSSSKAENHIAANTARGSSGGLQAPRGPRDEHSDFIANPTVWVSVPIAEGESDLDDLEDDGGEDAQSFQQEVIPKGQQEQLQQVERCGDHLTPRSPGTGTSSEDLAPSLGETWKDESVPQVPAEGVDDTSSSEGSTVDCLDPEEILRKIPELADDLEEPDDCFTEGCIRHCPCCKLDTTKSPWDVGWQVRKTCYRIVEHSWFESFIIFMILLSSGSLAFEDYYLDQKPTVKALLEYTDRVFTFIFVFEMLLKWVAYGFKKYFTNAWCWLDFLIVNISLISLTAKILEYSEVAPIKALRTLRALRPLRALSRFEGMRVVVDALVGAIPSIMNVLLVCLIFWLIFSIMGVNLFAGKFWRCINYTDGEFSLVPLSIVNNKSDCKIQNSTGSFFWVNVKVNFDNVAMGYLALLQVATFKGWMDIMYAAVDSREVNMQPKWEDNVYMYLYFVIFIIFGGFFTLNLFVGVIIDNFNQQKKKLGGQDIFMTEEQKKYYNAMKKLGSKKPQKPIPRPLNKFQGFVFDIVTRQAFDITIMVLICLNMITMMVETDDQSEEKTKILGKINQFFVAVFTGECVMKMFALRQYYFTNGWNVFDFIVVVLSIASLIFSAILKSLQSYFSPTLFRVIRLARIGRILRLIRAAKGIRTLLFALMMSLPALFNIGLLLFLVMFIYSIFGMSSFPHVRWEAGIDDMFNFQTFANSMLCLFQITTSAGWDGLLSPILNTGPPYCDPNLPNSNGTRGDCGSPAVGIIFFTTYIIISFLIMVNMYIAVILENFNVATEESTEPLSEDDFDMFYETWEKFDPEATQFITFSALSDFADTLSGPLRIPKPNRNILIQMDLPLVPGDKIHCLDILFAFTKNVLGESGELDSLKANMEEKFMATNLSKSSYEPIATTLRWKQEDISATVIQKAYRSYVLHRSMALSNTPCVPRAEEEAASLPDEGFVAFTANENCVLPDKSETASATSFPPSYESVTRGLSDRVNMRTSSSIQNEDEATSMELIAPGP
row,Structure (SMILES),IC50 [nM]
1,"CC(C)(C)COC(=O)N[C@@H]1CCN(c2nc(-c3ccccc3O)nc3ccc(F)cc23)C1 [Compound 4, (R)-Neopentyl 1-(6-fluoro-2-(2-hydroxyphenyl)quinazolin-4-yl)pyrrolidin-3-ylcarbamate]",> 5000
2,"COCCOC(=O)N[C@@H]1CCN(c2nc(-c3ccccc3O)nc3cc(C)ccc23)C1 [Compound 14, (R)-2-Methoxyethyl 1-(2-(2-hydroxyphenyl)-7-methylquinazolin-4-yl)pyrrolidin-3-ylcarbamate]",1000 to 5000
3,"COCCOC(=O)N[C@H]1CCN(c2nc(-c3ccccc3O)nc3cc(C)ccc23)C1 [Compound 6, (S)-{1-[2-(2-Hydroxy-phenyl)-7-methyl-quinazolin-4-yl]-pyrrolidin-3-yl}-carbamic acid 2-methoxy-ethyl ester]",> 5000
4,"COCCOC(=O)N[C@@H]1CCN(c2nc(-c3c(O)cccc3F)nc3cc(C)ccc23)C1 [Compound 1, (R)-2-Methoxyethyl 1-(2-(2-fluoro-6-hydroxyphenyl)-7-methylquinazolin-4-yl)pyrrolidin-3-ylcarbamate]",1000 to 5000
5,"CCOC(=O)N[C@@H]1CCN(c2nc(-c3c(O)cccc3F)nc3cc(C)ccc23)C1 [Compound 10, (R)-Ethyl 1-(2-(2-fluoro-6-hydroxyphenyl)-7-methylquinazolin-4-yl)pyrrolidin-3-ylcarbamate]",1000 to 5000
6,"CC(C)OC(=O)N[C@@H]1CCN(c2nc(-c3ccccc3O)nc3ccc(F)cc23)C1 [Compound 16, (R)-Isopropyl 1-(6-fluoro-2-(2-hydroxyphenyl)quinazolin-4-yl)pyrrolidin-3-ylcarbamate]",1000 to 5000
7,"Cc1ccc2c(N3CC[C@H](NC(=O)OCC(C)C)C3)nc(-c3ccccc3O)nc2c1 [Compound 7, (S)-{1-[2-(2-Hydroxy-phenyl)-7-methyl-quinazolin-4-yl]-pyrrolidin-3-yl}-carbamic acid isobutyl ester]",1000 to 5000

# Continued, values first:
row,IC50 [nM],Structure (SMILES)
1,< 1000,"Cc1ccc2c(N3CC[C@@H](NC(=O)OCC(C)C)C3)nc(-c3ccccc3C(F)F)nc2c1 [Compound 17, (R)-Isobutyl 1-(2-(2-(difluoromethyl)phenyl)-7-methylquinazolin-4-yl)pyrrolidin-3-ylcarbamate]"
2,< 1000,"Cc1ccc2c(N3CC[C@@H](NC(=O)OCC(C)C)C3)nc(-c3ccccc3O)nc2c1 [Compound 5, (R)-Isobutyl 1-(2-(2-hydroxyphenyl)-7-methylquinazolin-4-yl)pyrrolidin-3-ylcarbamate]"
3,1000 to 5000,"CC(C)COC(=O)N[C@@H]1CCN(c2nc(-c3ccccc3O)nc3ccc(F)cc23)C1 [Compound 15, (R)-Isobutyl 1-(6-fluoro-2-(2-hydroxyphenyl)quinazolin-4-yl)pyrrolidin-3-ylcarbamate]"
4,< 1000,"CCOC(=O)N[C@@H]1CCN(c2nc(-c3ccccc3O)nc3cc(C)ccc23)C1 [Compound 2, (R)-Ethyl 1-(2-(2-hydroxyphenyl)-7-methylquinazolin-4-yl)pyrrolidin-3-ylcarbamate]"
5,< 1000,"CCCOC(=O)N[C@@H]1CCN(c2nc(-c3c(O)cccc3F)nc3cc(C)ccc23)C1 [Compound 13, (R)-Propyl 1-(2-(2-fluoro-6-hydroxyphenyl)-7-methylquinazolin-4-yl)pyrrolidin-3-ylcarbamate]"
6,< 1000,"CCCOC(=O)N[C@@H]1CCN(c2nc(-c3ccccc3O)nc3cc(C)ccc23)C1 [Compound 3, (R)-Propyl 1-(2-(2-hydroxyphenyl)-7-methylquinazolin-4-yl)pyrrolidin-3-ylcarbamate]"
7,< 1000,"Cc1ccc2c(N3CC[C@@H](NC(=O)OCC(C)C)C3)nc(-c3c(O)cccc3F)nc2c1 [Compound 8, (R)-Isobutyl 1-(2-(2-fluoro-6-hydroxyphenyl)-7-methylquinazolin-4-yl)pyrrolidin-3-ylcarbamate]"
8,< 1000,"Cc1ccc2c(N3CC[C@@H](NC(=O)OCC(C)(C)C)C3)nc(-c3ccccc3C(F)F)nc2c1 [Compound 18, (R)-Neopentyl 1-(2-(2-(difluoromethyl)phenyl)-7-methylquinazolin-4-yl)pyrrolidin-3-ylcarbamate]"
9,< 1000,"Cc1ccc2c(N3CC[C@@H](NC(=O)OCC(C)(C)C)C3)nc(-c3c(O)cccc3F)nc2c1 [Compound 11, (R)-Neopentyl 1-(2-(2-fluoro-6-hydroxyphenyl)-7-methylquinazolin-4-yl)pyrrolidin-3-ylcarbamate]"
10,< 1000,"Cc1ccc2c(N3CC[C@@H](NC(=O)OC(C)C)C3)nc(-c3ccccc3O)nc2c1 [Compound 12, (R)-Isopropyl 1-(2-(2-hydroxyphenyl)-7-methylquinazolin-4-yl)pyrrolidin-3-ylcarbamate]"
11,< 1000,"Cc1ccc2c(N3CC[C@@H](NC(=O)OCC(C)(C)C)C3)nc(-c3ccccc3O)nc2c1 [Compound 9, (R)-Neopentyl 1-(2-(2-hydroxyphenyl)-7-methylquinazolin-4-yl)pyrrolidin-3-ylcarbamate]"
